Source: US7998989B2, “2-Imino-1,3-thiazoline-based compounds and T-type calcium channel inhibitors containing the same” (Korea Institute of Science and Technology, priority 2007, dated 2011)
Read-outs that look alike come from different tables or passages of the source.

Tests used:
[1] = biological target: T1, α1G T-type calcium channel (Homo sapiens, UniProt O43497); experiment: Assay for % inhibiting activity against T-type calcium channel using FDSS6000 (fluo-3 calcium imaging, KCl activation); assay type: cell-based
T1 construct: host or cells: HEK293
Outline: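 Percent inhibition derived from […] area against untreated control (100%), after 75 s compound pre-exposure and 75 mM KCl activation. Cells: HEK293 with stable α1G plus Kir2.1, fluo-3/AM-labelled (5 μM), assayed in pH 7.4 HEPES containing 10 mM CaCl2.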

[2] = biological target: T1, α1G T-type calcium channel; experiment: Electrophysiological whole cell patch clamp measurement of T-type calcium channel current in HEK293 cells; assay type: cell-based; conditions: HEK293 cells expressing α1G; for HEK293cell (% Inhibition) 10 μM: inhibition of peak current; for IC50: read-out: IC50 (a1G)
Method: In the present invention, in order to examine an efficient inhibitor against the T-type calcium channel, a primary assay for T-type calcium channel inhibiting activity was conducted by a high-efficient assay using FDSS6000, wherein mammal HEK293 cell lines (originated from human kidney carcinoma cells) that specifically express α1G of the T-type calcium channel was used for primary assay. Through the primary assay, compounds that show meaningful inhibition effects were selected. The selected compounds were used in a second assay for T-type calcium channel inhibiting activity using an electrophysiological whole cell patch clamp method, wherein mammal HEK293 cell lines (originated from human kidney carcinoma cells) that specifically express α1G of the T-type calcium channel was used for the second assay. Mibefradil, which had been developed as a T-type calcium channel inhibitor, was used as a reference.
10% Fetal bovine serum (FBS) and 1% penicillin/streptomycin (v/v) were added to Dulbecco's modified Eagle's medium (DMEM), to be used as a media solution. The cells were cultured in an incubator under a wet condition of 95% air/5% CO2 and a temperature of 36.5° C. The media solution was refreshed every 3 or 4 days, and the cells were sub-cultured every week. Only the cells that expressed α1G T-type calcium channel were cultured using a G-418 (0.5 mg/ml) solution. The recording of the cells used in the T-type calcium channel activity analysis was conducted at 2-7 days after the cells were culturing on a cover slip coated with poly-L-lysine (0.5 mg/ml) when conducting every sub-culture. For analysis at a single cell level, the T-type calcium channel current was measured by an electrophysiological whole cell patch clamp method using EPC-9 amplifier (HEKA, German).
As solutions for analyzing T-type calcium channel activity, a solution including NaCl 140 mM, CaCl2 2 mM, and HEPES10 mM (pH 7.4, Sigma; 4-(2-hydroxyethyl)piperazine-1-ethanesulfonic acid) was used as an extracellular solution, and a solution including KCl 130 mM, HEPES 10 mM (Sigma), EGTA 11 mM (ethylene glycol-bis(2-aminoethylether)-N,N,N′,N′-tetraacetic acid, Sigma), and MgATP 5 mM (pH 7.4, Sigma) was used as an intracellular solution. The protocol for T-type calcium channel activity that is activated at low voltage is as follows. A micro-glass electrode with resistance of 3-4 MΩ wherein the above-prepared intracellular solution was filled was pricked into a single cell, to make a whole-cell recording mode. Thereafter, the cell membrane potential was fixed to −100 mV, and then the inward current due to the T-type calcium channel activity when hypopolarizing to −30 mV (50 ms duration) was measured every 10 seconds.
Each compound to be tested was dissolved in 100% dimethylsulfoxide (DMSO) to make a 10 mM stock solution. The effect of the compound on the T-type calcium channel current compound was initially examined in the stock solution with the 1000-times diluted concentration of 10 μM (containing 0.1% DMSO) and then examined in the solution with the concentration for IC50 measurement (mostly 0.1 to 100 μM), to obtain an IC50 value. More specifically, the cells were treated in each compound together with the extracellular solution for 30 to 60 seconds, and the inhibition level of peak current induced by the compound was calculated as a percentage, to obtain the % inhibition value as shown in Table 4.

[3] = 10 μM, HEK293 cells stably expressing α1G T-type calcium channel and Kir2.1, compounds of the examples

T1 sequence (O43497 whole entry): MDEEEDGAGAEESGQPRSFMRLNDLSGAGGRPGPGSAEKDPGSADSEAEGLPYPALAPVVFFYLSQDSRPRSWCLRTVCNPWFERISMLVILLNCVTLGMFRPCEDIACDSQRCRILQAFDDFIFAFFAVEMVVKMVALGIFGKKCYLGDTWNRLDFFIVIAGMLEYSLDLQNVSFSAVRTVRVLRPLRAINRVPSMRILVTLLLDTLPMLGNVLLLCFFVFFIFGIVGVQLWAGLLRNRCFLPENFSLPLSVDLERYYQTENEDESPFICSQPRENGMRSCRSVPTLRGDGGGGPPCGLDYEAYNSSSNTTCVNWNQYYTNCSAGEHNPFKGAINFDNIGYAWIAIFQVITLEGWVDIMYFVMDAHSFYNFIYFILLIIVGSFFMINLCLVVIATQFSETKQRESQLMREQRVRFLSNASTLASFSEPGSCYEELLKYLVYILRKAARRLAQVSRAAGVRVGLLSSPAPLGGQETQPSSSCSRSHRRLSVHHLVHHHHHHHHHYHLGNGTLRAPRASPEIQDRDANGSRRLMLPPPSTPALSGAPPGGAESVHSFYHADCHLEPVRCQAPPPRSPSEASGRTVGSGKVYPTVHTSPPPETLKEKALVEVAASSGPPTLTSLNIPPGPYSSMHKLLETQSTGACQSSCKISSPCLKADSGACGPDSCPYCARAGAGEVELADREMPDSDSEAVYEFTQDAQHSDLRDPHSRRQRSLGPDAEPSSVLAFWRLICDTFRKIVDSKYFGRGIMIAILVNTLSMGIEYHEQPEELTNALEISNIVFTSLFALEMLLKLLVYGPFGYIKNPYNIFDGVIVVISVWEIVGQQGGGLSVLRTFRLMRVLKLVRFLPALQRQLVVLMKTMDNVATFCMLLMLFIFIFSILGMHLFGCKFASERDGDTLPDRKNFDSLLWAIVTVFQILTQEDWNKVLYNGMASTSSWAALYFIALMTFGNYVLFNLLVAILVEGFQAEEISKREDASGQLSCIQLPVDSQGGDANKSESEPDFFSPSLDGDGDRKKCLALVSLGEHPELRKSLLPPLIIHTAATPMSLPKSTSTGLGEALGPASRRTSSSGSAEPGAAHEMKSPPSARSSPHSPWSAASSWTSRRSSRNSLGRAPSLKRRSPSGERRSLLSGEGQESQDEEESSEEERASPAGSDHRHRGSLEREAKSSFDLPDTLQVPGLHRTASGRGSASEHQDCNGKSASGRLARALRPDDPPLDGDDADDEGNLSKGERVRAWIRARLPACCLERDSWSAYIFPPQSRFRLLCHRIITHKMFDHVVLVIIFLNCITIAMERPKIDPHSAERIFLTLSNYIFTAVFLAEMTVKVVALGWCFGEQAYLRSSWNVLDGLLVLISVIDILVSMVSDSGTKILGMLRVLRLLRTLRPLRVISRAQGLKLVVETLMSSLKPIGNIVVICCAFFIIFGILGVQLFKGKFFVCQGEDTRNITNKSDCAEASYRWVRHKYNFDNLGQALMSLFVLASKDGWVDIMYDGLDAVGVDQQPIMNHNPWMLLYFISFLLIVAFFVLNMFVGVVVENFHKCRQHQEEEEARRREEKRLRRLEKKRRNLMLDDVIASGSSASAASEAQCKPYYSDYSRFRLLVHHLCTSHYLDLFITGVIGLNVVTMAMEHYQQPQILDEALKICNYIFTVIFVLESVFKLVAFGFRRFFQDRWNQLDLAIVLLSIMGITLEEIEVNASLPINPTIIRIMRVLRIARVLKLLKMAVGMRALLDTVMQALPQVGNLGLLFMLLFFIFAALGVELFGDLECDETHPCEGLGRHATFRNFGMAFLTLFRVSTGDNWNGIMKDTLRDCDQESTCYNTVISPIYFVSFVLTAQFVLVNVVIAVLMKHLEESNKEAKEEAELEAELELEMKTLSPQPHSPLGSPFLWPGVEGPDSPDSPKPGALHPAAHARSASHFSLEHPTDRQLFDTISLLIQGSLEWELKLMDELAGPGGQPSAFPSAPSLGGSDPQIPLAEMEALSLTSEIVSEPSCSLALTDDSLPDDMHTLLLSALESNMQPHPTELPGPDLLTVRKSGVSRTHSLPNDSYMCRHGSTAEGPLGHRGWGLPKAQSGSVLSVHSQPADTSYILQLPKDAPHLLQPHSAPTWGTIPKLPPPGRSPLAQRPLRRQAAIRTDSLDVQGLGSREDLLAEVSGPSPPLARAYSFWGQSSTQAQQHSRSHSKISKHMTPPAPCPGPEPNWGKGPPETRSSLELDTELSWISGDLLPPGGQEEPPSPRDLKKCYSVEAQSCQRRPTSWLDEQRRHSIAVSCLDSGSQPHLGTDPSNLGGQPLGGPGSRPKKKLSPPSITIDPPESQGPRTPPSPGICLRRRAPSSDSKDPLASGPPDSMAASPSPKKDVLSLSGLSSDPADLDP

## CN1C(=NC2CCCCCC2)SCC1CC(=O)Nc1cc(Cl)cc(Cl)c1.Cl (stereo not shown) [KHG24125, (2-cycloheptylimino-3-methyl-1,3-thiazolidine-4-yl)-N-(3,5- ? chlorophenyl)-acetamide hydrochloride]
[1]; [3]
  FDSS (% inhibition)/10uM: 71.79%
[2]
  HEK293cell (% Inhibition) 10 μM: 95.6 ± 1.2%
  IC50: 0.08 ± 0.01 µM

## CN1C(=NC2C3CC4CC(C3)CC2C4)SCC1CC(=O)Nc1ccc(F)cc1.Cl (stereo not shown) [KHG24842, [2-(2-adamantylimino)-3-methyl-1,3-thiazolidine-4-yl]-N-(4-fluorophenyl)-acetamide hydrochloride]
other
  melting point: 154 °C
[1]; HEK293, 10 μM, HEK293 cells stably expressing α1G T-type calcium channel and Kir2.1, compounds of the examples, read-out: FDSS (% inhibition)/10uM
  inhibition at 10 µM: 59.8%

## CN1C(=Nc2cccc(F)c2)SCC1CC(=O)Nc1ccc(Cl)cc1F.Cl (stereo not shown) [KHG32076, [2-(3-fluorophenylimino)-3-methyl-1,3-thiazolidine-4-yl]-N-(4-chloro-2-fluorophenyl)-acetamide hydrochloride]
other
  melting point: 229 to 231 °C
[1]; 10 μM, FDSS (% inhibition), comparative compounds where R6 is a phenyl group, read-out: FDSS
  inhibition at 10 µM: 20.5%

## (2-cycloheptylimino-3-methyl-1,3-thiazolidine-4-yl)-N-(2,4-difluorophenyl)-acetamide hydrochloride [KHG24127]
[1]; [3]
  FDSS (% inhibition)/10uM: 49.69%
[2]
  HEK293cell (% Inhibition) 10 μM: 80.8 ± 0.6%
  IC50: 2.66 ± 0.33 µM

## (2-cycloheptylimino-3-methyl-1,3-thiazolidine-4-yl)-N-(2-chloro-4-fluorophenyl)-acetamide hydrochloride [KHG24120]
[1]; [3]
  FDSS (% inhibition)/10uM: 60.08%
[2]
  HEK293cell (% Inhibition) 10 μM: 82.7 ± 0.9%
  IC50: 2.75 ± 0.25 µM

## (2-cycloheptylimino-3-methyl-1,3-thiazolidine-4-yl)-N-(2-fluoro-4-methylphenyl)-acetamide hydrochloride [KHG24126]
[1]; [3]
  FDSS (% inhibition)/10uM: 53.79%
[2]
  HEK293cell (% Inhibition) 10 μM: 87.7 ± 0.6%
  IC50: 1.2 ± 0.08 µM

## (2-cycloheptylimino-3-methyl-1,3-thiazolidine-4-yl)-N-(2-fluoro-5-nitrophenyl)-acetamide hydrochloride [KHG24129]
[1]; [3]
  FDSS (% inhibition)/10uM: 61.39%
[2]
  HEK293cell (% Inhibition) 10 μM: 90.0 ± 0.4%
  IC50: 1.57 ± 0.11 µM

## (2-cycloheptylimino-3-methyl-1,3-thiazolidine-4-yl)-N-(4-bromophenyl)-acetamide hydrochloride [KHG24122]
[1]; [3]
  FDSS (% inhibition)/10uM: 71.12%
[2]
  HEK293cell (% Inhibition) 10 μM: 94.6 ± 0.5%
  IC50: 0.39 ± 0.03 µM

## (2-cycloheptylimino-3-methyl-1,3-thiazolidine-4-yl)-N-(4-chloro-2-fluorophenyl)-acetamide hydrochloride [KHG24130]
[1]; [3]
  FDSS (% inhibition)/10uM: 70.4%
[2]
  HEK293cell (% Inhibition) 10 μM: 90.0 ± 0.9%
  IC50: 0.81 ± 0.08 µM

## (2-cycloheptylimino-3-methyl-1,3-thiazolidine-4-yl)-N-(4-chlorobenzyl)-acetamide hydrochloride [KHG24160]
[1]; [3]
  FDSS (% inhibition)/10uM: 61.93%
[2]
  HEK293cell (% Inhibition) 10 μM: 92.9 ± 0.7%
  IC50: 1.33 ± 0.03 µM

## (2-cycloheptylimino-3-methyl-1,3-thiazolidine-4-yl)-N-(4-chlorophenyl)-acetamide hydrochloride [KHG24131]
[1]; [3]
  FDSS (% inhibition)/10uM: 72.86%
[2]
  HEK293cell (% Inhibition) 10 μM: 86.8 ± 0.3%
  IC50: 0.52 ± 0.02 µM

## (2-cycloheptylimino-3-methyl-1,3-thiazolidine-4-yl)-N-(4-cyanomethylphenyl)-acetamide hydrochloride [KHG24121]
[1]; [3]
  FDSS (% inhibition)/10uM: 41.02%
[2]
  HEK293cell (% Inhibition) 10 μM: 58.1 ± 4.9%
  IC50: 8.53 ± 1.72 µM

## (2-cycloheptylimino-3-methyl-1,3-thiazolidine-4-yl)-N-(4-ethylphenyl)-acetamide hydrochloride [KHG24117]
[1]; [3]
  FDSS (% inhibition)/10uM: 67.09%
[2]
  HEK293cell (% Inhibition) 10 μM: 93.0 ± 2.5%
  IC50: 0.57 ± 0.07 µM

## (2-cycloheptylimino-3-methyl-1,3-thiazolidine-4-yl)-N-(4-fluorobenzyl)-acetamide hydrochloride [KHG24159]
[1]; [3]
  FDSS (% inhibition)/10uM: 48.52%
[2]
  HEK293cell (% Inhibition) 10 μM: 76.8 ± 1.4%
  IC50: 3.57 ± 0.29 µM

## (2-cycloheptylimino-3-methyl-1,3-thiazolidine-4-yl)-N-(4-fluorophenyl)-acetamide hydrochloride [KHG24118]
[1]; [3]
  FDSS (% inhibition)/10uM: 66%
[2]
  HEK293cell (% Inhibition) 10 μM: 80.3 ± 1.1%
  IC50: 1.88 ± 0.22 µM

## (2-cycloheptylimino-3-methyl-1,3-thiazolidine-4-yl)-N-(4-isopropylphenyl)-acetamide hydrochloride [KHG24133]
[1]; [3]
  FDSS (% inhibition)/10uM: 69.18%
[2]
  HEK293cell (% Inhibition) 10 μM: 96.0 ± 1.9%
  IC50: 0.42 ± 0.01 µM

## (2-cycloheptylimino-3-methyl-1,3-thiazolidine-4-yl)-N-(4-methoxybenzyl)-acetamide hydrochloride [KHG24161]
[1]; [3]
  FDSS (% inhibition)/10uM: 31.29%
[2]
  HEK293cell (% Inhibition) 10 μM: 81.2 ± 1.3%
  IC50: 1.67 ± 0.51 µM

## (2-cycloheptylimino-3-methyl-1,3-thiazolidine-4-yl)-N-(4-methoxyphenyl)-acetamide hydrochloride [KHG24119]
[1]; [3]
  FDSS (% inhibition)/10uM: 52.85%
[2]
  HEK293cell (% Inhibition) 10 μM: 72.9 ± 1.0%
  IC50: 4.44 ± 0.28 µM

## (2-cycloheptylimino-3-methyl-1,3-thiazolidine-4-yl)-N-(4-methyl-2-chlorophenyl)-acetamide hydrochloride [KHG24124]
[1]; [3]
  FDSS (% inhibition)/10uM: 59.49%
[2]
  HEK293cell (% Inhibition) 10 μM: 87.1 ± 1.2%
  IC50: 1.77 ± 0.1 µM

## (2-cycloheptylimino-3-methyl-1,3-thiazolidine-4-yl)-N-(4-n-butylphenyl)-acetamide hydrochloride [KHG24134]
[1]; [3]
  FDSS (% inhibition)/10uM: 75.92%
[2]
  HEK293cell (% Inhibition) 10 μM: 95.1 ± 2.0%
  IC50: 0.34 ± 0.03 µM

## (2-cycloheptylimino-3-methyl-1,3-thiazolidine-4-yl)-N-(4-phenoxyphenyl)-acetamide hydrochloride [KHG24123]
[1]; [3]
  FDSS (% inhibition)/10uM: 76.6%
[2]
  HEK293cell (% Inhibition) 10 μM: 94.2 ± 2.0%
  IC50: 1.09 ± 0.2 µM

## (2-cycloheptylimino-3-methyl-1,3-thiazolidine-4-yl)-N-(5-chloro-2-fluorophenyl)-acetamide hydrochloride [KHG24128]
[1]; [3]
  FDSS (% inhibition)/10uM: 62.56%
[2]
  HEK293cell (% Inhibition) 10 μM: 88.1 ± 1.9%
  IC50: 0.55 ± 0.01 µM

## (2-cycloheptylimino-3-methyl-1,3-thiazolidine-4-yl)-N-phenyl-acetamide hydrochloride [KHG24132]
[1]; [3]
  FDSS (% inhibition)/10uM: 50.94%
[2]
  HEK293cell (% Inhibition) 10 μM: 76.8 ± 1.0%
  IC50: 5 ± 1.97 µM
